Results from patent publication US8802661B2, “C-28 amides of modified C-3 betulinic acid derivatives as HIV maturation inhibitors” (priority 2010, dated 2014).
Counter-ions that a name gives are not always drawn.

These compounds were tested on recombinant NL4-3 virus (Renilla luciferase in nef, Gag P373S) (assay: HIV Cell Culture Assay (luciferase reporter virus in MT-2 cells)). Conditions: NL43.
Type: cell-based
How it was run: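 MT-2 cells in RPMI 1640 with 10% heat-inactivated FBS were infected with the reporter virus, made by transfecting the proviral clone into 293T cells, and cultured 4-5 days with serial inhibitor dilutions. Antiviral activity was quantified from Renilla luciferase activity measured in lysed cells.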

| SMILES | EC50 |
| --- | --- |
| C=C(C)[C@@H]1CC[C@]2(C(=O)NCCN3CCS(=O)(=O)CC3)CC[C@]3(C)[C@H](CC[C@@H]4[C@@]5(C)CC=C(c6ccc(B(O)O)cc6)C(C)(C)[C@@H]5CC[C@]43C)[C@@H]12 [Example 130, (4-((1R,3aS,5aR,5bR,7aR,11aS,11bR,13aR,13bR)-3a-((2-(1,1-dioxidothiomorpholino)ethyl)carbamoyl)-5a,5b,8,8,11a-pentamethyl-1-(prop-1-en-2-yl)-2,3,3a,4,5,5a,5b,6,7,7a,8,11,11a,11b,12,13,13a,13b-octadecahydro-1H-cyclopenta[a]chrysen-9-yl)phenyl)boronic acid, TFA] | 13.4 nM |

Same assay, conditions: NL43, read-out: EC50 Group

| SMILES | EC50 |
| --- | --- |
| C=C(C)[C@@H]1CC[C@]2(C(=O)NCCCN3CCS(=O)(=O)CC3)CC[C@]3(C)[C@H](CC[C@@H]4[C@@]5(C)CC=C(c6ccc(C(=O)O)cc6F)C(C)(C)[C@@H]5CC[C@]43C)[C@@H]12 [Example 109, 4-((1R,3aS,5aR,5bR,7aR,11aS,11bR,13aR,13bR)-3a-((3-(1,1-dioxido-4-thiomorpholinyl)propyl)carbamoyl)-1-isopropenyl-5a,5b,8,8,11a-pentamethyl-2,3,3a,4,5,5a,5b,6,7,7a,8,11,11a,11b,12,13,13a,13b-octadecahydro-1H-cyclopenta[a]chrysen-9-yl)-3-fluorobenzoic acid] | < 100 nM |
| C=C(C)[C@@H]1CC[C@]2(C(=O)NCCCNC(C)=O)CC[C@]3(C)[C@H](CC[C@@H]4[C@@]5(C)CC=C(c6ccc(C(=O)O)cc6)C(C)(C)[C@@H]5CC[C@]43C)[C@@H]12 [Example 53, 4-((1R,3aS,5aR,5bR,7aR,11aS,11bR,13aR,13bR)-3a-(3-acetamidopropylcarbamoyl)-5a,5b,8,8,11a-pentamethyl-1-(prop-1-en-2-yl)-2,3,3a,4,5,5a,5b,6,7,7a,8,11,11a,11b,12,13,13a,13b-octadecahydro-1H-cyclopenta[a]chrysen-9-yl)benzoic acid] | < 100 nM |
| C=C(C)[C@@H]1CC[C@]2(C(=O)NCCN3CCN(C(=O)OC(C)(C)C)CC3)CC[C@]3(C)[C@H](CC[C@@H]4[C@@]5(C)CC=C(c6ccc(C(=O)O)cc6)C(C)(C)[C@@H]5CC[C@]43C)[C@@H]12 [Example 37, 4-((1R,3aS,5aR,5bR,7aR,11aS,11bR,13aR,13bR)-3a-(2-(4-(tert-butoxycarbonyl)piperazin-1-yl)ethylcarbamoyl)-5a,5b,8,8,11a-pentamethyl-1-(prop-1-en-2-yl)-2,3,3a,4,5,5a,5b,6,7,7a,8,11,11a,11b,12,13,13a,13b-octadecahydro-1H-cyclopenta[a]chrysen-9-yl)benzoic acid] | < 100 nM |
| C=C(C)[C@@H]1CC[C@]2(C(=O)NCCN(CC)CCO)CC[C@]3(C)[C@H](CC[C@@H]4[C@@]5(C)CC=C(c6ccc(C(=O)O)cc6)C(C)(C)[C@@H]5CC[C@]43C)[C@@H]12 [Example 72, 4-((1R,3aS,5aR,5bR,7aR,11aS,11bR,13aR,13bR)-3a-(2-(ethyl(2-hydroxyethyl)amino)ethylcarbamoyl)-5a,5b,8,8,11a-pentamethyl-1-(prop-1-en-2-yl)-2,3,3a,4,5,5a,5b,6,7,7a,8,11,11a,11b,12,13,13a,13b-octadecahydro-1H-cyclopenta[a]chrysen-9-yl)benzoic acid] | < 100 nM |
| C=C(C)[C@@H]1CC[C@]2(C(=O)NS(=O)(=O)N(C)C)CC[C@]3(C)[C@H](CC[C@@H]4[C@@]5(C)CC=C(c6ccc(C(=O)O)cc6)C(C)(C)[C@@H]5CC[C@]43C)[C@@H]12 [Example 7, 4-((1R,3aS,5aR,5bR,7aR,11aS,11bR,13aR,13bR)-3a-(N,N-dimethylsulfamoylcarbamoyl)-5a,5b,8,8,11a-pentamethyl-1-(prop-1-en-2-yl)-2,3,3a,4,5,5a,5b,6,7,7a,8,11,11a,11b,12,13,13a,13b-octadecahydro-1H-cyclopenta[a]chrysen-9-yl)benzoic acid] | < 100 nM |
| C=C(C)[C@@H]1CC[C@]2(C(=O)NCc3ncc[nH]3)CC[C@]3(C)[C@H](CC[C@@H]4[C@@]5(C)CC=C(c6ccc(C(=O)O)cc6)C(C)(C)[C@@H]5CC[C@]43C)[C@@H]12 [Example 43] | < 100 nM |
| C=C(C)[C@@H]1CC[C@]2(C(=O)NCCCN(CC)CCCC(=O)O)CC[C@]3(C)[C@H](CC[C@@H]4[C@@]5(C)CC=C(c6ccc(C(=O)O)cc6)C(C)(C)[C@@H]5CC[C@]43C)[C@@H]12 [Example 101, 4-((1R,3aS,5aR,5bR,7aR,11aS,11bR,13aR,13bR)-3a-(3-((3-carboxypropyl)(ethyl)amino)propylcarbamoyl)-5a,5b,8,8,11a-pentamethyl-1-(prop-1-en-2-yl)-2,3,3a,4,5,5a,5b,6,7,7a,8,11,11a,11b,12,13,13a,13b-octadecahydro-1H-cyclopenta[a]chrysen-9-yl)benzoic acid] | < 100 nM |
| C=C(C)[C@@H]1CC[C@]2(C(=O)NCCC(=O)N3CCCC3C(=O)O)CC[C@]3(C)[C@H](CC[C@@H]4[C@@]5(C)CC=C(c6ccc(C(=O)O)cc6)C(C)(C)[C@@H]5CC[C@]43C)[C@@H]12 (stereo partly drawn) [Example 127, 1-(3-((1R,3aS,5aR,5bR,7aR,11aS,11bR,13aR,13bR)-9-(4-carboxyphenyl)-5a,5b,8,8,11a-pentamethyl-1-(prop-1-en-2-yl)-2,3,3a,4,5,5a,5b,6,7,7a,8,11,11a,11b,12,13,13a,13b-octadecahydro-1H-cyclopenta[a]chrysene-3a-carboxamido)propanoyl)pyrrolidine-2-carboxylic acid] | < 100 nM |
| C=C(C)[C@@H]1CC[C@]2(C(=O)NCCN(C)C)CC[C@]3(C)[C@H](CC[C@@H]4[C@@]5(C)CC=C(c6ccc(C(=O)O)cc6)C(C)(C)[C@@H]5CC[C@]43C)[C@@H]12 [Example 16, 4-((1R,3aS,5aR,5bR,7aR,11aS,11bR,13aR,13bR)-3a-(2-(dimethylamino)ethylcarbamoyl)-5a,5b,8,8,11a-pentamethyl-1-(prop-1-en-2-yl)-2,3,3a,4,5,5a,5b,6,7,7a,8,11,11a,11b,12,13,13a,13b-octadecahydro-1H-cyclopenta[a]chrysen-9-yl)benzoic acid] | < 100 nM |
| C=C(C)[C@@H]1CC[C@]2(C(=O)NCc3nc4ccccc4s3)CC[C@]3(C)[C@H](CC[C@@H]4[C@@]5(C)CC=C(c6ccc(C(=O)O)cc6)C(C)(C)[C@@H]5CC[C@]43C)[C@@H]12 [Example 45, 4-((1R,3aS,5aR,5bR,7aR,11aS,11bR,13aR,13bR)-3a-(benzo[d]thiazol-2-ylmethylcarbamoyl)-5a,5b,8,8,11a-pentamethyl-1-(prop-1-en-2-yl)-2,3,3a,4,5,5a,5b,6,7,7a,8,11,11a,11b,12,13,13a,13b-octadecahydro-1H-cyclopenta[a]chrysen-9-yl)benzoic acid] | < 100 nM |
